From US10875864B2, “Substituted imidazo[1,2-B]pyridazines as protein kinase inhibitors” (SUMITOMO DAINIPPON PHARMA ONCOLOGY, INC., priority 2011, dated 2020)

Key:
[1] = tested on: ML-2 cells (wild-type FLT3); assay: ML-2 mouse xenograft; assay type: in vivo; conditions: ML-2, wild-type FLT3
Description: (§1) Male and female Nu/Nu mice were purchased from Harlan Sprague Dawley (Indianapolis, Ind.). Female Nu/Nu mice were used for all xenograft evaluations with the exception of the PC-3 xenografts where male Nu/Nu mice were used. Cell lines were expanded in vitro in complete media, and if adherent were harvested by trypsin-EDTA, centrifuged and resuspended in PBS 1:1 with Matrigel (BD Bioscienes). Cells were inoculated subcutaneously in the right hind flank of mice. When tumors reached 100-200 mm^3 by caliper measurement, mice were randomized and dosing of SGI-9481 or vehicle control began and continued every day for 5 days (QD×5) with 2 days off for 18-21 days. Tumor volumes and body weights were determined twice a week, and tumor weights were measured at the completion of the translational xenograft studies.

UM-UC-3 cells = assay: Colony formation assay, UM-UC-3; assay type: cell-based
Description: (§2) For shRNA growth experiments, 500 UM-UC-3 cells were seeded in a 12-well plate 48 hours post-transduction and cultured for 8-10 days at 37° C. in 5% CO2. Cells were fixed with 4% paraformaldehyde in PBS, washed twice with PBS, and stained with a crystal violet solution (1% crystal violet, 10% ethanol in water). Stained cells were washed thrice with water, and imaged after drying on a GelCount colony counter (Oxford Optronix Ltd., Oxford, UK). Total staining intensity per well was determined by lysis of cells with 200 μl of Triton X-100 lysis buffer (1% Triton X-100, 50 mM Tris-HCl pH 7.4, 150 mM NaCl, 1 mM EDTA). Lysates (100 μl) from each well were transferred to a clear 96-well plate and absorbance at 560 nm was determined on an Envision microplate reader. IC50 values were determined using GraphPad Prism software. For compound treated PC-3 and UM-UC-3, cells were seeded and stained as above, but were incubated with various concentrations of test compound or DMSO one day after seeding.
(§3) Translational models were also explored for PIM dependency using shRNA knockdown. The UM-UC-3 urinary epithelial bladder carcinoma cell line was used to verify and validate dependency on PIM-1 for growth. […] Reduction of PIM-1 mRNA and growth also were observed using both PIM-1 and PIM-2 shRNA in the androgen-independent prostate carcinoma cell line PC-3 (data not shown).

UM-UC-3 xenograft tumors = assay: UM-UC-3 established mouse xenograft; assay type: in vivo
Description: as §1, with “When tumors reached 100-200 mm^3 by caliper measurement, mice were randomized and dosing of SGI-9481 or vehicle control began and continued every day for 5 days (QD×5) with 2 days off for 18-21 days.” left out

[2] = tested on: phosphatidyl inositol-3-kinase (PI3K) family; assay: Selectivity study, PI3K family; assay type: biochemical; conditions: multiple members
PC-3 cells = assay: Colony formation assay, PC-3; assay type: cell-based
Description: as §2, §3

22RV1/PIM-1 xenografts = assay: 22RV1/PIM-1 over-expression tumor xenograft; assay type: in vivo, mouse
Description: as §1
(§4) The prostate cancer cell line 22RV1 engineered to over-express PIM-1 as previously described (Mumenthaler, et al, Mol. Cancer Ther., 2009, 8(10)2882-93) was evaluated in vivo. A second model engineered to over-express PIM-2 was established using the NIH-3T3 mouse fibroblast cell line.

PC-3 xenograft tumors = assay: PC-3 established mouse xenograft; assay type: in vivo
Description: as §1, with “When tumors reached 100-200 mm^3 by caliper measurement, mice were randomized and dosing of SGI-9481 or vehicle control began and continued every day for 5 days (QD×5) with 2 days off for 18-21 days.” left out

NIH-3T3/PIM-2 xenografts = assay: NIH-3T3/PIM-2 over-expression tumor xenograft; assay type: in vivo, mouse
Description: as §1, §4

MV-4-11 (FLT3-ITD) = assay: MV-4-11 mouse xenograft; assay type: in vivo
Description: as §1

For `CC(C)(O)[C@H]1CC[C@H](Nc2ccc3ncc(-c4cccc(C(F)(F)F)c4)n3n2)CC1` [Compound 8-31], the tumor growth inhibition [1] was “significant tumor growth inhibition”, the colony growth (UM-UC-3 cells) was “reduced colony growth” and the tumor growth inhibition (UM-UC-3 xenograft tumors; 125 mg/kg) was “significant tumor growth inhibition”. The “body weight and gross toxicity” value (UM-UC-3 xenograft tumors; oral 200 mg/kg) was “no significant changes in body weight or gross adverse toxicity”, the “tumor growth by volume and final tumor weight” value (UM-UC-3 xenograft tumors; oral 200 mg/kg) was “significantly reduced” and the “activity against PI3K family members” value [2] was “inhibitory activity”. For the same molecule, the colony growth (PC-3 cells) was “reduced colony growth”, the subcutaneous tumor growth (22RV1/PIM-1 xenografts; 22RV1/PIM-1 + compound vs vehicle) was “significantly reduced” and the body weight change (22RV1/PIM-1 xenografts; 22RV1 xenograft mice) was “No significant changes in body weight”. The tumor growth inhibition (PC-3 xenograft tumors; 125 mg/kg) was “significant tumor growth inhibition”, the “body weight and gross toxicity” value (PC-3 xenograft tumors; oral 200 mg/kg) was “no significant changes in body weight or gross adverse toxicity” and the “tumor growth by volume and final tumor weight” value (PC-3 xenograft tumors; oral 200 mg/kg) was “significantly reduced”. The subcutaneous tumor growth (NIH-3T3/PIM-2 xenografts; NIH-3T3/PIM-2 + compound vs vehicle) was “significantly inhibited”, the body weight change (NIH-3T3/PIM-2 xenografts; NIH-3T3 xenograft mice) was “No significant changes in body weight” and the “effect on established xenografts” value (MV-4-11 (FLT3-ITD)) was “induced regressions”.
